Test results as given in patent US6916818B2, “Azaindoles having serotonin receptor affinity” (NPS Allelix Corp., priority 1999, dated 2005).

molecular target: T1, human 5HT6 receptor (Homo sapiens, UniProt P50406); experiment: Functional assay: serotonin-stimulated adenyl cyclase (cAMP EIA) in HEK 293 cells expressing 5HT6; format: cell-based; conditions: test compound 100 nM and 10 μM along with serotonin
T1 construct: expressed in transfected cells
Experimental: The 5HT6 receptor responds to serotonin and other agonists by increasing adenyl cyclase mediated production of cyclic AMP. Particular test compounds were assayed for their effect on adenyl cyclase activity using the procedure described below.
Compounds acting as antagonists at the 5HT6 receptor will antagonize the agonist effect of serotonin and thus, will block the serotonin-induced increase in adenyl cyclase activity.
HEK 293 cells stably expressing the human 5HT6 receptor were plated in 6 well plates in DMEM (Dulbecco's Modified Eagle Medium)/F12 (Nutrient Mixture F12—Ham) media with 10% FCS (fetal calf serum) and G418 (Geneticen Disulfate, 500 ug/ml), and incubated at 37° C. in a CO2 incubator. The cells were allowed to grow to about 70% confluence before use in the assay.
The culture medium of each well was removed, and the wells were washed once with serum free media. Then 2 ml of SFM+IBMX medium (SFM with 0.5 mM IBMX, 3-isobutyl-1-methylxanthine, 0.1% ascorbic acid and 10 mM pargyline) was added to each well and the wells were incubated at 37° C. for 10 min. Following incubation, the SFM+IBMX medium was removed from each well and fresh SFM+IBMX media was added to the wells separately with one of a) serotonin (1 μM final concentration); b) test compound (100 nM and 10 μM, to test for agonist activity); and c) test compound (100 nM and 10 μM) along with serotonin ([…], to test for antagonist activity). Basal adenyl cyclase activity was determined from wells with only SFM+IBMX media added.
The cells were then incubated at 37° C. for 30 minutes in a CO2 incubator. […] The pellets were discarded and the supernatants were stored at 4° C. until assayed for cAMP concentration. cAMP content for each extract was determined in duplicate by EIA (enzyme-immunoassay) using the Amersham Biotrak cAMP EIA kit (Amersham RPN 225). Final results were expressed as % basal response for agonists and % reversal of serotonin response for antagonists.
The total stimulation of adenyl cyclase by serotonin (So) was determined as the difference in concentration of cAMP in the serotonin-treated cells (Cd) and the basal-treated cells (Cf). […]
The net stimulation (S) of basal adenyl cyclase by an agonist test compound was determined as the difference in cAMP concentration in the drug-treated cell (C) and the basal-treated cells (Cf). […]
The net stimulation (Ss) of basal adenyl cyclase by serotonin in the presence of an antagonist test compound was determined as the difference in cAMP concentration in the serontonin-drug-treated cells (Cs) and the basal-treated cells (Cf). […]
The ability of the antagonist test compound to reverse the serotonin stimuation of adenyl cyclase activity (% reversal, % R) was determined by the formula: % R=(1−Ss/So)×100

T1 sequence (P50406 whole entry): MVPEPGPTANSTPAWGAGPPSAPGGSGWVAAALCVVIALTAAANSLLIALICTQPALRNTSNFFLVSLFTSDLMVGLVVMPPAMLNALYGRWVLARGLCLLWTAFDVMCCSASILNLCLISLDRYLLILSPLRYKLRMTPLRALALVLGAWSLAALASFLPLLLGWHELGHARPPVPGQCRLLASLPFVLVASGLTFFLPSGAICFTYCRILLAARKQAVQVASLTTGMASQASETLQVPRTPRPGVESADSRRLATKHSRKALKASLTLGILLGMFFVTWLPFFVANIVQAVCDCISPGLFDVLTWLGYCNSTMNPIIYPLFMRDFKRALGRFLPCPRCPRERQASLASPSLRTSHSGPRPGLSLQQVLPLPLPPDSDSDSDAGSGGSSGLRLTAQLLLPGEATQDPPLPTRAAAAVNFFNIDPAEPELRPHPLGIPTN

Row | SMILES | reversal of serotonin stimulation of adenyl cyclase (antagonist activity)
1 | O=S(=O)(c1cccc2ccccc12)n1cc(C2=CCN3CCCC3C2)c2cnccc21 (stereo not shown) [3-(1,2,3,5,8,8a-Hexahydro-7-indolizinyl)-1-(1-naphthalenesulfonyl)-5-azaindole] | able to reverse the serotonin stimulation of adenyl cyclase
2 | O=S(=O)(c1cccc2ccccc12)n1cc(C2=CCN3CCCC3C2)c2cccnc21 (stereo not shown) [3-(1,2,3,5,8,8a-Hexahydro-7-indolizinyl)-1-(1-naphthalenesulfonyl)-7-azaindole] | able to reverse the serotonin stimulation of adenyl cyclase
3 | O=S(=O)(c1ccccc1)n1cc(C2=CCN3CCCC3C2)c2cccnc21 (stereo not shown) [3-(1,2,3,5,8,8a-Hexahydro-7-indolizinyl)-1-benzenesulfonyl-7-azaindole] | able to reverse the serotonin stimulation of adenyl cyclase
4 | O=S(=O)(c1ccccc1)n1cc(C2=CCN3CCCC3C2)c2cnccc21 (stereo not shown) [3-(1,2,3,5,8,8a-Hexahydro-7-indolizinyl)-1-benzenesulfonyl-5-azaindole] | able to reverse the serotonin stimulation of adenyl cyclase
